# Laboratory results published in patent US8637038B2, “Methods for inhibiting allograft rejection” (Rigel Pharmaceuticals, Inc., priority 2011, dated 2014).
# “Also recorded” adds a separate entry of the source. Where two headings read alike, the source gives them in different places.
# Legend:
# JAK1/Tyk2 = experiment: IFN-γ T cell phospho-STAT1; type: cell-based; settings: Homo sapiens
# Protocol: The activity of Compound III and Compound I was assessed in a panel of cell-based assays. Compound III and Compound I are selective inhibitors of JAK1/3-dependent signaling. Data for a non-selective JAK inhibitor (Compound IV) is shown for reference. Mixed lymphocyte reactions (MLRs) were performed by incubating freshly prepared naive human peripheral blood lymphocytes from one donor with CD80+/CD86+ mature Dendritic Cells derived from a different donor for 5 days. The percentage of CD3+/CD71+ (anti-CD3-APC, Clone HIT3a, anti-CD 71-FITC, Clone M-A712; BD Biosciences, San Jose, Calif.) proliferating cells was assessed by fluorescence-activated cell sorting (FACS; BD Bioscience). Interleukin-2 (IL-2)-dependent human primary T cell proliferation was assessed using CellTiter-Glo® Luminescent Cell Viability Assay (Promega, Madison, Wis.). STAT phosphorylation induced by different cytokines in human primary T cells was measured by intracellular FACS analysis (anti-pY694-STAT5 AlexaFluor488, anti-pY701-STAT1 AlexaFluor488, and anti-pY693-STAT4 AlexaFluor488; BD Biosciences). […] Interferon-γ (IFN-γ) signaling was assessed in the U937 monocytic cell line by measuring ICAM-1 surface expression by FACS (ICAM-1-APC, BD Bioscience).
# INSR = experiment: Insulin HeLa phospho-Akt; type: cell-based; settings: upstream kinase INSR
# Protocol: Growth factor-dependent protein phosphorylation was detected in HeLa cells by staining permeabilized cells with phospho-specific antibodies and quantified by chemiluminescence (Luminator, Wallac Multilabel Counter; Perkin Elmer). Akt phosphorylation was measured following insulin stimulation and EGFR phosphorylation was measured following EGF stimulation (Phospho-AKT, Cell signaling technology, Danvers, Mass.; 1 μM Insulin, Millipore, Billerica, Mass.; Phospho-EGFR, tyr1173, clone 53A3, Cell Signaling Technology; 200 ng/ml recombinant human EGF, PeproTech, Hamburg, Germany). Human umbilical vein endothelial cells (HUVECs) were stimulated with VEGF and VEGFR2 phosphorylation was assessed by ELISA (100 ng/ml VEGF165, R&D Systems; Rabbit anti-phospho-VEGFR2 mAb, Cell Signaling Technology).
# [1] = system: Lew recipients of heterotopic BN heart transplants; experiment: Five-day heart allograft study: ELISPOT (IFN-γ, IL-4, IL-17) of recipient splenocytes; type: in vivo, rat; settings: for IFN-γ spot frequency (ELISPOT) compared to no medication group: LD groups (Compound I 15 mg/kg BID, Compound III 5 mg/kg BID, Tac 1 mg/kg QD), five days; for suppression of IFN-γ response to donor-specific antigens compared to Tac LD treatment: LD groups
# Protocol: Compound I and Compound III were provided by Rigel (South San Francisco, Calif.) and Tacrolimus was provided by Astellas (Munich, Germany). All drugs were administrated orally each in two different concentrations: Compound I LD (15 mg/kg BID; n=6) and HD (60 mg/kg BID; n=6); Compound III LD (5 mg/kg BID; n=6) and HD (20 mg/kg BID; n=6); Tac LD (1 mg/kg QD; n=6) and HD (4 mg/kg QD; n=6). Administration of all drugs was performed every day at the same time points. Tacrolimus was applied only once a day (QD) every 24 hours. During administration of Compound I (BID) and Compound III (BID) a 12 hour pause was kept in between each drug application.
# Lew recipients of heterotopic BN heart transplants were randomly assigned to their group. Animals were either left untreated (groups 1 and 2; see Table 1,5-day study) or received their group specific medication (groups 3-8; see Table 1,5-day study) by oral application. An untreated syngeneic transplant group Lew-Lew was generated as control.
# Lymphocytes were isolated from freshly harvested spleens. ELISPOT assays with 1×10^7/ml mitomycin-inhibited BN splenocytes and 1×10^6/ml Lew splenocytes were performed according to the manufacturer's protocol (BD Biosciences). 96-well plates were coated with IFN-γ, IL-17, and IL-4 to assess T helper cell (Th)1-, Th17-, and Th2-responses independently. All assays were performed in quadruplicates. Spots were automatically enumerated using an ELISPOT plate reader (CTL, Cincinnati, Ohio) for scanning and analyzing.
# [2] = system: Lew recipients of heterotopic BN heart transplants; experiment: Five-day heart allograft study: intragraft cytokines (Quantibody arrays); type: in vivo, rat; settings: HD groups; for intragraft IFN-γ release / intragraft IL-10 release compared to no medication group: five days; for intragraft IFN-γ release / intragraft IL-10 release compared to no medication group / intragraft IL-10 release compared to Tac HD treatment: p<0.05
# Protocol: Compound I and Compound III were provided by Rigel (South San Francisco, Calif.) and Tacrolimus was provided by Astellas (Munich, Germany). All drugs were administrated orally each in two different concentrations: Compound I LD (15 mg/kg BID; n=6) and HD (60 mg/kg BID; n=6); […] Administration of all drugs was performed every day at the same time points. Tacrolimus was applied only once a day (QD) every 24 hours. During administration of Compound I (BID) and Compound III (BID) a 12 hour pause was kept in between each drug application. Lew recipients of heterotopic BN heart transplants were randomly assigned to their group. […] An untreated syngeneic transplant group Lew-Lew was generated as control. […] Hearts were equally homogenized in 400 μl RIPA buffer (Sigma-Aldrich, St. Louis, Mo.). The protein content within the supernatant was quantified using the colorimetric BCA protein assay (Thermo Fisher Scientific, Rockford, Ill.) at 562 nm wavelength, according to the manufacturer's protocol. A total of 300 μg protein per Quantibody® array glass chip was used to quantitatively measure the intracellular cytokine content by ELISA in quadruplicates (Human cytokine array 1, Raybiotech). All values were normalized to the standard curve. Glass chip analysis was performed by Raybiotech.
compound,measurement,setting,value
"COc1cc(Nc2ncc(C)c(Nc3ccc4oc(=O)[nH]c4c3)n2)cc(C)c1F [Compound I, 5-(2-(4-fluoro-3-methoxy-5-methylphenylamino)-5-methylpyrimidin-4-ylamino)benzo[d]oxazol-2(3H)-one]",EC50,"JAK1/Tyk2; upstream kinases JAK1/Tyk2, read-out: IFN-γ T cell phospho-STAT1 EC50",9 ± 7 nM
same,Insulin HeLa phospho-Akt EC50,INSR,Inactive
same,IL-17 cytokine release (ELISPOT) compared to no medication group,"[1]; HD 60 mg/kg BID, p<0.010",significantly suppressed
same,IL-17 cytokine release (ELISPOT) compared to no medication group,"[1]; LD 15 mg/kg BID, p<0.001",significantly suppressed
same,IL-17 spot frequency compared to Tac LD,"[1]; LD 15 mg/kg BID, p<0.001",significantly less spot frequency
same,IFN-γ spot frequency (ELISPOT) compared to no medication group,[1],significantly reduced
same,suppression of IFN-γ response to donor-specific antigens compared to Tac LD treatment,[1]; p<0.001,significantly better results
same,intragraft MCP-1 release compared to Tac HD treatment,[2],lower mean values
same,intragraft IFN-γ release,[2],significantly less; also recorded: significant reduction
same,intragraft IL-10 release compared to no medication group,[2],significantly reduced; also recorded: significant reduction
same,intragraft IL-10 release compared to Tac HD treatment,[2],significantly less IL-10 release
"COc1cc(Nc2ncc(C)c(Nc3ccc4oc(=O)[nH]c4c3)n2)cc(C)c1C [Compound III, 5-(2-(3-methoxy-4,5-dimethylphenylamino)-5-methylpyrimidin-4-ylamino)benzol[d]oxazol-2-(3H)-one]",EC50,JAK1/Tyk2; read-out: IFN-γ T cell phospho-STAT1 EC50,7 ± 1 nM
same,Insulin HeLa phospho-Akt EC50,INSR,Inactive
same,IFN-γ spot frequency compared to Tac HD group,"[1]; Compound III LD 5 mg/kg BID, p<0.05",less IFN-γ spot frequency
same,IFN-γ spot frequency (ELISPOT) compared to no medication group,[1],significantly reduced
same,suppression of IFN-γ response to donor-specific antigens compared to Tac LD treatment,[1]; p<0.001,significantly better results
same,intragraft MCP-1 release compared to Tac HD treatment,[2],lower mean values
same,intragraft IFN-γ release,[2],significantly less; also recorded: significant reduction
same,intragraft IL-10 release compared to no medication group,[2],significantly reduced; also recorded: significant reduction
same,intragraft IL-10 release compared to Tac HD treatment,[2],significantly less IL-10 release
